Experimental data: US12098148B2, “Therapeutic compounds” (C4X Discovery Limited, priority 2018, dated 2024)

Legend:
[1] = biological target: human KEAP1 (N-term, residues 321-609) (Homo sapiens, UniProt Q14145); experiment: biochemical;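 note: fluorescence polarization competition assay of Kelch domain binding to NRF2, 12-point 1:3 dilution series from 10 µM, read after 1 h at room temperature, floor 10 nM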
Protocol: Biological Assays KEAP1 Kelch Fluorescence Polarization (FP) Assay Method
Inhibition of the Kelch domain-NRF2 interaction was determined using a fluorescence polarization-based competition assay in a black 384-well microplate. Compounds were tested at a starting concentration of 10 μM serially diluted 1:3 to generate a 12-point dose response curve on the Biomek FX robot.
After 1 h at room temperature, fluorescence polarization (excitation 470 nm/emission 530 nm) was measured using an Envision plate reader. IC50 values were determined by fitting the data to a four parameter logistic fit using XLfit or XE Runner within ActivityBase.

[2] = system: NQO1 mRNA in BEAS-2B cells; experiment: Beas2B NQO1 mRNA cell based assay; parameters: species or system human; settings: Homo sapiens, BEAS-2B, 24 h, 24 h compound treatment, increase in NQO1 mRNA vs vehicle (0.1% DMSO), read-out: EC50
How it was run: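 BEAS-2B human bronchial epithelial cells exposed to compound for 24 h at 37 °C, 5% CO2. NQO1 mRNA measured by one-step TaqMan RT-qPCR on unpurified lysates, normalized to β-actin; relative expression by ΔΔCT method.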

Sequence of human KEAP1 (N-term, residues 321-609) (Q14145 321-609): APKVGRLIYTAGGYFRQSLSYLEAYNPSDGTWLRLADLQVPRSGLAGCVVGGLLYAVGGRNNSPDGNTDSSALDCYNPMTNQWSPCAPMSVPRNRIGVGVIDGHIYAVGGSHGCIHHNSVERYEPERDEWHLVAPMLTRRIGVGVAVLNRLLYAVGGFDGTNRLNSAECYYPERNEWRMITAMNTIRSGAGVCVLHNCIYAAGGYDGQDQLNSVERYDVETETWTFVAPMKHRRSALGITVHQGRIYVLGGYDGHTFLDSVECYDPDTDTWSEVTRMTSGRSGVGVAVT

Row | IC50 [1] | Structure (SMILES) | EC50 [2]
1 | 8.5 nM | Cc1nc(COc2ccc(Cl)c3c2[C@@H](CN2CCCC2=O)N(C(=O)[C@@H]2CCCC[C@]2(C)C(=O)O)CC3)no1 [Example 168, (1S,2R)-2-((S)-5-chloro-8-((5-methyl-1,2,4-oxadiazol-3-yl)methoxy)-1-((2-oxopyrrolidin-1-yl)methyl)-1,2,3,4-tetrahydroisoquinoline-2-carbonyl)-1-methylcyclohexane-1-carboxylic acid] | 85 nM
2 | 9.8 nM | Cn1nnc(COc2ccc(Cl)c3c2[C@@H](CN2CC4(CC4)CC2=O)N(C(=O)[C@@H]2CC(F)(F)CC[C@]2(C)C(=O)O)CC3)c1C(F)F [Example 217, (1S,2R)-2-((S)-5-chloro-8-((5-(difluoromethyl)-1-methyl-1H-1,2,3-triazol-4-yl)methoxy)-1-((6-oxo-5-azaspiro[2.4]heptan-5-yl)methyl)-1,2,3,4-tetrahydroisoquinoline-2-carbonyl)-4,4-difluoro-1-methylcyclohexane-1-carboxylic acid] | 43 nM
3 | 8.4 nM | Cc1onc(COc2ccc(Cl)c3c2[C@@H](CN2CCCC2=O)N(C(=O)[C@@H]2CCCC[C@]2(C)C(=O)O)CC3)c1C [Example 124, (1S,2R)-2-((S)-5-chloro-8-((4,5-dimethylisoxazol-3-yl)methoxy)-1-((2-oxopyrrolidin-1-yl)methyl)-1,2,3,4-tetrahydroisoquinoline-2-carbonyl)-1-methylcyclohexane-1-carboxylic acid] | 6.8 nM
4 | 5.1 nM | C[C@]1(C(=O)O)CCCC[C@H]1C(=O)N1CCc2c(Cl)ccc(OCc3nnn4c3CCC4)c2[C@H]1CN1CC2(CC2)CC1=O [Example 181, (1S,2R)-2-((S)-5-chloro-8-((5,6-dihydro-4H-pyrrolo[1,2-c][1,2,3]triazol-3-yl)methoxy)-1-((6-oxo-5-azaspiro [2.4]heptan-5-yl)methyl)-1,2,3,4-tetrahydroisoquinoline-2-carbonyl)-1-methylcyclohexane-1-carboxylic acid] | 0.69 nM
5 | 6.6 nM | Cn1ccc(COc2ccc(Cl)c3c2[C@@H](CN2CC4(CC4)CC2=O)N(C(=O)[C@@H]2CCCC[C@]2(C)C(=O)O)CC3)cc1=O [Example 148, (1S,2R)-2-((S)-5-chloro-8-((1-methyl-2-oxo-1,2-dihydropyridin-4-yl)methoxy)-1-((6-oxo-5-azaspiro[2.4]heptan-5-yl)methyl)-1,2,3,4-tetrahydroisoquinoline-2-carbonyl)-1-methylcyclohexane-1-carboxylic acid] | 22 nM
6 | 6.4 nM | C[C@]1(C(=O)O)CCCC[C@H]1C(=O)N1CCc2c(Cl)ccc(OCc3cncnc3C(F)(F)F)c2[C@H]1CN1CC2(CC2)CC1=O [Example 171, (1S,2R)-2-((S)-5-chloro-1-((6-oxo-5-azaspiro[2.4]heptan-5-yl)methyl)-8-((4-(trifluoromethyl)pyrimidin-5-yl)methoxy)-1,2,3,4-tetrahydroisoquinoline-2-carbonyl)-1-methylcyclohexane-1-carboxylic acid] | 19 nM
7 | 16 nM | Cc1noc(COc2ccc(Cl)c3c2[C@@H](CN2CCCC2=O)N(C(=O)[C@@H]2CCCC[C@]2(C)C(=O)O)CC3)n1 [Example 167, (1S,2R)-2-((S)-5-chloro-8-((3-methyl-1,2,4-oxadiazol-5-yl)methoxy)-1-((2-oxopyrrolidin-1-yl)methyl)-1,2,3,4-tetrahydroisoquinoline-2-carbonyl)-1-methylcyclohexane-1-carboxylic acid] | 280 nM

The next lines start with the compound.

Row | Structure (SMILES) | IC50 [1] | EC50 [2]
8 | COCc1c(COc2ccc(Cl)c3c2[C@@H](CN2C[C@H](C)CC2=O)N(C(=O)[C@@H]2CCCC[C@]2(C)C(=O)O)CC3)nnn1C [Example 162, (1S,2R)-2-((S)-5-chloro-8-((5-(methoxymethyl)-1-methyl-1H-1,2,3-triazol-4-yl)methoxy)-1-(((R)-4-methyl-2-oxopyrrolidin-1-yl)methyl)-1,2,3,4-tetrahydroisoquinoline-2-carbonyl)-1-methylcyclohexane-1-carboxylic acid] | 6.3 nM | 2.4 nM
9 | O=C(O)[C@H]1CCCC[C@H]1C(=O)N1CCc2cccc(O[C@H]3CCN(C(=O)c4cncs4)C3)c2[C@H]1CN1Cc2ccccc2C1=O [Example 15, (1S,2R)-2-((S)-1-((1-Oxoisoindolin-2-yl)methyl)-8-(((S)-1-(thiazole-5-carbonyl)pyrrolidin-3-yl)oxy)-1,2,3,4-tetrahroisoquinoline-2-carbonyl)cyclohexane-1-carboxylic acid] | 5.1 nM | 850 nM
10 | O=C(O)[C@H]1CCCC[C@H]1C(=O)N1CCc2c(Br)ccc(OCc3cn(CC4CC4)nn3)c2[C@H]1CN1Cc2ccccc2C1=O [Example 31, (1S,2R)-2-((S)-5-bromo-8-((1-(cyclopropylmethyl)-1 1,2,3-triazol-4-yl)methoxy)-1-((1-oxoisoindolin-2-yl)methyl)-1,2,3,4-tetrahydroisoquinoline-2-carbonyl)cyclohexane-1-carboxylic acid] | 4.5 nM | 8.5 nM
11 | Cn1nnc(COc2cccc3c2[C@@H](CN2CCCC2=O)N(C(=O)[C@@H]2CCCC[C@]2(C)C(=O)O)CC3)c1C(F)(F)F [Example 190, (1S,2R)-1-methyl-2-((S)-8-((1-methyl-5-(trifluoromethyl)-1H-1,2,3-triazol-4-yl)methoxy)-1-((2-oxopyrrolidin-1-yl)methyl)-1,2,3,4-tetrahydroisoquinoline-2-carbonyl)cyclohexane-1-carboxylic acid] | 5.6 nM | 8.6 nM
12 | Cn1nnc(COc2ccc(Cl)c3c2[C@@H](CN2Cc4ccccc4C2=O)N(C(=O)[C@@H]2CCCC[C@@H]2C(=O)O)CC3)c1C(F)(F)F [Example 54, (1S,2R)-2-((S)-5-Chloro-8-((1-methyl-5-(trifluoromethyl)-1H-1,2,3-triazol-4-yl)methoxy)-1-((1-oxoisoindolin-2-yl)methyl)-1,2,3,4-tetrahydroisoquinoline-2-carbonyl)cyclohexane-1-carboxylic acid] | 3.6 nM | 7.2 nM
13 | Cc1cnc(COc2ccc(Br)c3c2[C@@H](CN2Cc4ccccc4C2=O)N(C(=O)[C@@H]2CCCC[C@@H]2C(=O)O)CC3)s1 [Example 28, (1S,2R)-2-((S)-5-Bromo-8-((5-methylthiazol-2-yl)methoxy)-1-((1-oxoisoindolin-2-yl)methyl)-1,2,3,4-tetrahydroisoquinoline-2-carbonyl)cyclohexane-1-carboxylic acid] | 14 nM | 93 nM
14 | Cn1cnc2cc(COc3ccc(Br)c4c3[C@@H](CN3Cc5ccccc5C3=O)N(C(=O)[C@@H]3CCCC[C@@H]3C(=O)O)CC4)ccc21 [Example 33, (1S,2R)-2-((S)-5-bromo-8-((1-methyl-1H-benzo[d]imidazol-5-yl)methoxy)-1-((1-oxoisoindolin-2-yl)methyl)-1,2,3,4-tetrahydroisoquinoline-2-carbonyl)cyclohexane-1-carboxylic acid] | 5.1 nM | 22 nM
15 | CC(C)n1cc(COc2ccc(Cl)c3c2[C@@H](CN2Cc4ccccc4C2=O)N(C(=O)[C@@H]2CCCC[C@@H]2C(=O)O)CC3)nn1 [Example 57, (1S,2R)-2-((S)-5-chloro-8-((1-isopropyl-1H-1,2,3-triazol-4-yl)methoxy)-1-((1-oxoisoindolin-2-yl)methyl)-1,2,3,4-tetrahydroisoquinoline-2-carbonyl)cyclohexane-1-carboxylic acid] | 6.6 nM | 2.7 nM
